Earlier results as cited in patent publication US20230012071A1, “MODIFIED RELEASE PHARMACEUTICAL COMPOSITIONS OF RIOCIGUAT” (ZYDUS LIFESCIENCES LIMITED, priority 2019, published 2023).

Settings: existing marketed immediate release tablet

For `COC(=O)N(C)c1c(N)nc(-c2nn(Cc3ccccc3F)c3ncccc23)nc1N`, the absolute bioavailability is listed as “about 94%” and the “time at which peak plasma concentrations are observed following drug administration” value is listed as at most 1.5 h.
